According to paper PMC5678437, “A new antagonist for CCR4 attenuates allergic lung inflammation in a mouse model of asthma” (Scientific Reports, 2017):

Key:
Assay type in all cases: cell-based
CCR1 = target: T1, CCR1 (Homo sapiens, UniProt P32246); experiment: Chemotaxis inhibition assay for receptor specificity, HEK293-CCR1; settings: 0.2, 1, 5, 25 μM, 30 min pretreatment
T1 construct: expressed in transfected cells; host or cells: HEK293; plasmid gift of Dr. Philip M. Murphy (NIAID, NIH)
T1 sequence (P32246 1-355): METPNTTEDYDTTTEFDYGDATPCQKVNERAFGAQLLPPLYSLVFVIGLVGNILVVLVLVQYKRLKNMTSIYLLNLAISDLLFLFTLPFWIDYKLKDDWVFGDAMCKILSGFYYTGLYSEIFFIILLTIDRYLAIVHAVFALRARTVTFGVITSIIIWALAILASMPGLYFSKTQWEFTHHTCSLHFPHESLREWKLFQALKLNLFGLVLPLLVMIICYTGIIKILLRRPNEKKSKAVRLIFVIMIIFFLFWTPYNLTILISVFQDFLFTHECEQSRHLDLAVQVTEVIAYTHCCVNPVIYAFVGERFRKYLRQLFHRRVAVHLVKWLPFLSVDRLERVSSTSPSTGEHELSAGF
Protocol: (§1) HEK293 cells were transfected with different chemokine receptors. The corresponding chemokines of different receptors were placed in the lower chambers. The transfected cells were pretreated with different concentrations of Compound 8a or 1‰ DMSO for 30 min at a density of 1 × 10^6 cells/ml and added to the upper chambers, the final concentration of the compound is: 0.2 μM, 1 μM, 5 μM, and 25 μM, respectively.

CXCR4 = target: T2, CXCR4 (Homo sapiens, UniProt P61073); experiment: Chemotaxis inhibition assay for receptor specificity, HEK293-CXCR4; settings: 0.2, 1, 5, 25 μM, 30 min pretreatment
T2 construct: expressed in transfected cells; host or cells: HEK293; plasmid from Chinese National Human Genome Center
T2 sequence (P61073 1-356 isoform P61073-2): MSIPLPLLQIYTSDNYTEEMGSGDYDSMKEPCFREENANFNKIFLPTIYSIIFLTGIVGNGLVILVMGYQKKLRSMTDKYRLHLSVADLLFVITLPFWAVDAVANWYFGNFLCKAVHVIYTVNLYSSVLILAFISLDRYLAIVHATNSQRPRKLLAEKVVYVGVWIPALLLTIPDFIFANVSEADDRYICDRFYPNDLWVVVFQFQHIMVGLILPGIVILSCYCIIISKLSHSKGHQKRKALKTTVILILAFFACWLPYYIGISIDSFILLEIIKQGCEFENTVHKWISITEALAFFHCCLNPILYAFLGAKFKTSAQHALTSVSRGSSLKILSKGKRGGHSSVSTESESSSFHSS
Protocol: as §1

CCR7 = target: T3, CCR7 (Homo sapiens, UniProt P32248); experiment: Chemotaxis assay for receptor specificity, HEK293-CCR7; settings: compound as chemoattractant in lower chamber, 0.2, 1, 5, 25 μM
T3 construct: expressed in transfected cells; host or cells: HEK293, pcDB-CCR7 plasmid made in the authors' laboratory
T3 sequence (P32248 25-378): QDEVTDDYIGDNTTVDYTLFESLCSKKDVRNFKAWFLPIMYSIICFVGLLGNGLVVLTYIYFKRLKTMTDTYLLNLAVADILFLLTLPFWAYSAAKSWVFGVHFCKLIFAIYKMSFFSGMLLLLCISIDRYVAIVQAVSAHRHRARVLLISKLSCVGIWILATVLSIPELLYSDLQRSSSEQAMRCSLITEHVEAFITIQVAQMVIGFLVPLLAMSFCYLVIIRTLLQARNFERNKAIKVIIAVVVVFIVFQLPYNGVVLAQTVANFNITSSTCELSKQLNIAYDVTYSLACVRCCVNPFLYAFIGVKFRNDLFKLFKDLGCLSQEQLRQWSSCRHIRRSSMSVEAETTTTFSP
Protocol: (§2) HEK293 cells were transfected with different chemokine receptors. Compound 8a with DMSO was diluted to 0.2 mM, 1 mM, 5 mM and 25 mM, and then we used RPMI 1640 medium containing 0.1% BSA for dilution. The final concentration is: 0.2 μM, 1 μM, 5 μM and 25 μM. DMSO was also diluted 1000-fold with 0.1% BSA RPMI 1640 medium. Chemokines was also diluted to an appropriate concentration. The dilutions of Compound 8a, 1‰ DMSO, the corresponding chemokines of different receptors and 0.1% BSA RPMI 1640 medium were placed in the lower chambers (27.5 μl/well). The transfected HEK293 cells were resuspended in the same medium at a density of 1 × 10^6 cells/ml and added to the upper chambers (55 μl/well).

CCR2B = target: T4, CCR2B (Homo sapiens, UniProt P41597); experiment: Chemotaxis assay for receptor specificity, HEK293-CCR2B; settings: compound as chemoattractant in lower chamber, 0.2, 1, 5, 25 μM
T4 construct: expressed in transfected cells; host or cells: HEK293, pcDB-CCR2B plasmid made in the authors' laboratory
T4 sequence (P41597 1-360 isoform P41597-2): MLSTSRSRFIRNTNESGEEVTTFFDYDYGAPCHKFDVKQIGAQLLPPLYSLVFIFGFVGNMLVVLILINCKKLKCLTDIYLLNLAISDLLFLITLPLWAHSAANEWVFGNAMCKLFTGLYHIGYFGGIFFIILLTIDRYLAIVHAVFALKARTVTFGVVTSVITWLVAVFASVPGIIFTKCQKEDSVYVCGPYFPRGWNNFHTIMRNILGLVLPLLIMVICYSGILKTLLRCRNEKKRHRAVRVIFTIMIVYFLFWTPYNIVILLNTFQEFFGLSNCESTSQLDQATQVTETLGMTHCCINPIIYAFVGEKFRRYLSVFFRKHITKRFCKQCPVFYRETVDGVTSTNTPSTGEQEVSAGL
Protocol: as §2

HEK293-CCR4 cells = experiment: MTT assay; settings: 1, 2, 4, 8, 16 μM, till the higher concentration (16 μM), 48 h
Protocol: pcDI-CCR4-transfected HEK293 cells, at the density of 800 cells /well, were plated overnight in 96-well plates. After plated overnight, different concentrations of compound 22 and compound 8a were added in cells and the final concentrations of these two compounds were: 1 μM, 2 μM, 4 μM, 8 μM and 16 μM. We set four wells for cells in each group which were incubated with each concentration of the compounds, and the cells were cultured for 48 h or 72 h. At 48 h or 72 h, 10 μl of the 5 mM MTT were added in cells and 100 μl of cell lysis buffer were added 4–6 h later. After added cell lysis buffer for an hour, microplate autoreader were used for measuring optical density (OD) of cells at 570 nm, and the ratio of OD in each group and that of DMSO group were valued as cell survival rates of each group.

CCR6 = target: T5, CCR6 (Homo sapiens, UniProt P51684); experiment: Chemotaxis assay for receptor specificity, HEK293-CCR6; settings: compound as chemoattractant in lower chamber, 0.2, 1, 5, 25 μM
T5 construct: expressed in transfected cells; host or cells: HEK293, pcDI-CCR6 plasmid made in the authors' laboratory
T5 sequence (P51684 1-374): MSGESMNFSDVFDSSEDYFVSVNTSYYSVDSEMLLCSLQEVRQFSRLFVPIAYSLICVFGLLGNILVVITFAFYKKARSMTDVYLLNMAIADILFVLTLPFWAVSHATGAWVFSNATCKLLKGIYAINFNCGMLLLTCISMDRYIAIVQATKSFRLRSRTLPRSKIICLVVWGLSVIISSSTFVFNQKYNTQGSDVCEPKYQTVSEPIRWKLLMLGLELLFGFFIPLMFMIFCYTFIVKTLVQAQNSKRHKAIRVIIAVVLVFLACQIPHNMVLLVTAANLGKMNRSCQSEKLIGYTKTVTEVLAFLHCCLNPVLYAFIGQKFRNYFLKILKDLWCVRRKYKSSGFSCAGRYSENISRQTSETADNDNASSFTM
Protocol: as §2

O=C(C1CCCCN1)N1CCN(c2nc(Cl)cc(NCc3ccc(Cl)cc3Cl)n2)CC1 (stereo not drawn) [compound 8a, {4-[4-Chloro-6-(2,4-dichloro-benzylamino)-pyrimidin-2-yl]-piperazin-1-yl}-piperidin-2-yl-methanone]
inhibition of chemotaxis of HEK293-CCR1 to its ligand (CCR1): few influence | inhibition of chemotaxis of HEK293-CXCR4 to its ligand (CXCR4): few influence | chemotaxis effect of the compound on HEK293-CCR7 (CCR7): didn’t exert chemotaxis effects | chemotaxis effect of the compound on HEK293-CCR2B (CCR2B): didn’t exert chemotaxis effects | cytotoxicity (MTT) (HEK293-CCR4 cells): no obvious cytotoxicity | chemotaxis effect of the compound on HEK293-CCR6 (CCR6): didn’t exert chemotaxis effects
